# Measured values taken from patent US12295997B2, “Prostate neoantigens and their uses” (Janssen Biotech, Inc., priority 2020, dated 2025).
# Test system: CD8+ and CD4+ T cells (autologous CD3+ Pan-T cells isolated from human normal PBMCs)
# Assay: Exogenous autologous normal donor restimulation assay (15-mer overlapping peptide pools on CD1c+ dendritic cells, TNFα/IFNγ flow cytometry)
# Format: cell-based
# Settings: 15-mer overlapping peptide pool; for Max. Fold Change over background CD4+ TNFαINFγ double positive DP / Max. Fold Change over background CD8+ TNFαINFγ double positive DP / Max. Frequency of CD4+ TNFαINFγ DP / Max. Frequency of CD8+ TNFαINFγ DP: Table 28, additional neoantigens, highest across normal donors; for Maximum Fold Change Over Background CD4+ cells / Maximum Fold Change Over Background CD8+ cells / Maximum Frequency of TNFα/IFNγ Double Positive CD4+ T cells / Maximum Frequency of TNFα/IFNγ Double Positive CD8+ T cells: Table 25; for Maximum Fold Change Over Background CD4+ cells: TNFα+IFNγ+ CD4+ T cells; for Maximum Fold Change Over Background CD4+ cells / Maximum Fold Change Over Background CD8+ cells: highest fold change over negative control across normal donors; for Maximum Fold Change Over Background CD8+ cells: TNFα+IFNγ+ CD8+ T cells; for Maximum Frequency of TNFα/IFNγ Double Positive CD4+ T cells / Maximum Frequency of TNFα/IFNγ Double Positive CD8+ T cells: highest frequency across normal donors
# Procedure: CD1c+ Dendritic Cells (DC) isolated from human normal PBMCs were thawed using media (IMDM (Gibco) supplemented with glutamine, HEPES, 5% human serum (Sigma), and 1× Pen-Strep). DC cells were resuspended in media supplemented with IL-4 (Peprotech, 80 ng/mL) and GM-CSF (Gibco, 80 ng/mL), plated in 6 well microplates, and rested overnight at 37° C. (5% CO2). The following day, DC cells were counted and plated in a 96 well round bottom microplate at a concentration of 30,000 viable cells per well. Lyophilized peptides (15-mer overlapping peptides) were solubilized in 100% DMSO and pooled by neoantigen to between 5 mg/mL and 20 mg/mL. Neoantigen peptides pools were added to DCs for a final concentration of […] and rested for 2 hours at 37° C. (5% CO2). CEF Peptide Pool “Plus” (Cellular Technologies, Ltd.) was utilized as a positive control and DMSO at the same final concentration as the experimental peptides was utilized as a negative control. After 2 hours, DC cells were irradiated with 50 gray of ionizing radiation. Autologous CD3+ Pan-T cells isolated from human normal PBMCs were thawed using media. Following irradiation, autologous Pan-T cells were added to the irradiated DCs at 300,000 viable cells per well. Human IL-15 (Peprotech) was added to all wells at final concentration of 10 ng/mL.
# Plates were incubated at 37° C. (5% CO2) for a total of 12 days. Media was refreshed every 2-3 days with IL-15 (10 ng/mL final concentration) and IL-2 (R&D systems, 10 IU/mL final concentration). On day 11 cells were re-stimulated with identical experimental peptide pools or controls, at same concentration as peptide stimulation on Day 1. Protein Inhibitor Cocktail (eBioscience) was added to every well and plate was incubated overnight at 37° C. (5% CO2).
# On day 12, cells were stained for intracellular flow cytometry analysis. The cells were washed with PBS and stained with Live/Dead Fixable Aqua Dead Cell stain (Thermo-Fisher). Following the live/dead stain, cells were blocked using Biotin-Free Fc Receptor Blocker (Accurate Chemical & Scientific Corp). Extracellular cellular flow panel (1 μL/antibody per well in 50 μL) consisted of CD3 PerCP-Cy5.5 (Biolegend), CD4 BV421 (Biolegend), and CD8 APC-Cy7 (Biolegend). After extracellular staining, cells were fixed using Foxp3/fTranscription Factor Staining Buffer Set (eBioscience) and stained for intracellular proteins (1:50 dilution) using TNFα FITC (R&D Systems) and IFNγ BV785 (Biolegend). Cells were washed and resuspended in stain buffer and analyzed using a BD Celesta flow cytometer.
# Flow cytometry cell staining analysis was completed using FlowJo v10. Cells were gated on live, singlet, CD3+ cells. The CD8+ and CD4+ T cells were analyzed for TNFα/IFNγ expression and the frequency of double positive TNFα/IFNγ CD8+ and the frequency of double positive TNFα/IFNγ CD4+ T cells were recorded. Responses were assessed to be positive when the frequency of double positive TNFα/IFNγ CD8+ or TNFα/IFNγ CD4+ T cells due to stimulation with an experimental peptide pool was increased greater than or equal to 3-fold over the DMSO only negative control for that donor and at least 0.01%.
# (§1) Overlapping 15-mer peptides were designed to span each neoantigen incorporated into NeoGAd20 and NeoMVA to assess their ability to activate T cells using the exogenous autologous normal donor restimulation assay described in Example 1 as pools using TNFα and IFNγ production by CD8^+ and CD4^+ T cells as a readout.
# as §1, with “Immunogenicity of various additional identified neoantigens was assessed. Overlapping” for “Overlapping”, “similarly to what was done in Example 11” for “incorporated into NeoGAd20 and NeoMVA”
Molecule,Max. Fold Change over background CD4+ TNFαINFγ double positive DP,Max. Fold Change over background CD8+ TNFαINFγ double positive DP,Max. Frequency of CD4+ TNFαINFγ DP,Max. Frequency of CD8+ TNFαINFγ DP,Maximum Fold Change Over Background CD4+ cells,Maximum Fold Change Over Background CD8+ cells,Maximum Frequency of TNFα/IFNγ Double Positive CD4+ T cells,Maximum Frequency of TNFα/IFNγ Double Positive CD8+ T cells
P37 (MAGGVLRRLLCREPDRDGDKGASREETVVPLHIGDPVVLPGIGQCYSALF; listed as Homo sapiens) [Neoantigen P37],22.78,2.05,0.09,0.13,,,,
P97 (GYLRMQGLMAQRLLLR; listed as Homo sapiens) [Neoantigen P97],3.14,7.47,0.12,1.11,,,,
"PEPRRLSPGEPRGRPRKGWGIWGLCGARVGPKAWR (listed as Homo sapiens) [AS42, SLC39A4 alternative splicing]",24.58,4.65,0.59,0.69,,,,
"PVPTATPGVRSVTSPQGLGLFLKFI (listed as Homo sapiens) [AS9, CACNA1D alternative splicing]",4.18,3.81,0.16,0.12,,,,
"QPDSFAALHSSLNELGE (listed as Homo sapiens) [Neoantigen M86, AR L702H]",,,,,6.18,4.22,0.05,0.08
"QQLRIFCAAMASNEDFS (listed as Homo sapiens) [FUS11, MBTPS2->YY2 gene fusion]",28.57,2.63,0.16,0.1,,,,
"QWQHYHRSGEAAGTPLWRPTRN (listed as Homo sapiens) [AS19, NWD1 alternative splicing]",,,,,2.59,5.87,0.1,0.63
"RLTQRLVQGWTPMENRWCGRRAGGQPASSSTRWTTCRAACLLTKWTAGRSQTSIG (listed as Homo sapiens) [AS49, PDF alternative splicing]",184.87,8.67,0.14,0.65,,,,
RTALTHNQDFSIYRLCCKRGSLCHASQARSPAFPKPVRPLPAPITRITPQLGGQSDSSQPLLTTGRPQGWQDQALRHTQQASPASCATITIPIHSAALGDHSGDPGPAWDTCPPLPLTTLIPRAPPPYGDSTARSWPSRCGPLG [MS3],,,,,13.61,36.15,0.09,0.47
"TEISCCTLSSEENEYLPRPEWQLQ (listed as Homo sapiens) [FUS3, MSMB->NCOA4 gene fusion]",,,,,2.75,3.94,0.033,0.063
"TEYNQKLQVNQFSESK (listed as Homo sapiens) [FUS2, ARHGEF38->ARHGEF38-IT1 gene fusion]",,,,,2.14,3.13,0.03,0.05
"TGGKSTCSAPGPQSLPSTPFSTYPQWVILITEL (listed as Homo sapiens) [AS57, KLK3 alternative splicing]",,,,,11.00,4.67,0.110,0.056
TMPAILKLQKNCLLSL (listed as Homo sapiens) [MS8],,,,,15.60,4.44,0.40,0.14
"VAMMVPDRQVHYDFGL (listed as Homo sapiens) [AS3, DNAH8 alternative splicing]",,,,,3.86,7.92,0.054,0.095
"VETLENANSFSSGIQPLLCSLIGLENPT (listed as Homo sapiens) [AS58, CREB3L1 alternative splicing]",6.27,4.54,0.24,0.6,,,,
"VLRFLDLKVRYLHS (listed as Homo sapiens) [AS15, LRRC45 alternative splicing]",,,,,9.17,4.36,0.110,0.061
"VVGRRHETAPQPLLVPDRAGGEGGA (listed as Homo sapiens) [AS5, DHDH alternative splicing]",8.71,2.13,0.1,0.16,,,,
"WCPLDLRLGSTGCLTCRHHQTSHE (listed as Homo sapiens) [AS4, NCAPD3 alternative splicing]",37.38,5.4,1.43,0.17,,,,
"VPFRELKNQRTAQGAPGIHHAASPVAANLCDPARHAQHTRIPCGAGQVRAGRGPEAGGGVLQPQRPAPEKPGCPCRRGQPRLHTVKMWRA (peptide, listed as Homo sapiens, CPNE7 alternative splicing) VPFRELKNQRTAQGAPGIHHAASPVAANLCDPARHAQHTRIPCGAGQVRAGRGPEAGGGVLQPQRPAPEKPGCPCRRGQPRLHTVKMWRA",,,,,2.98,5.11,0.03,0.07
"VPFRELKNVSVLEGLRQGRLGGPCSCHCPRPSQARLTPVDVAGPFLCLGDPGLFPPVKSSI (peptide, listed as Homo sapiens, CPNE7 alternative splicing) VPFRELKNVSVLEGLRQGRLGGPCSCHCPRPSQARLTPVDVAGPFLCLGDPGLFPPVKSSI",,,,,5.67,28.75,0.040,0.460
"CHLFLQPQVGTPPPHTASARAPSGPPHPHESCPAGRRPARAAQTCARRQHGLPGCEEAGTARVPSLHLHLHQAALGAGRGRGWGEACAQVPPSRG (peptide, listed as Homo sapiens, RECQL4 alternative splicing) CHLFLQPQVGTPPPHTASARAPSGPPHPHESCPAGRRPARAAQTCARRQHGLPGCEEAGTARVPSLHLHLHQAALGAGRGRGWGEACAQVPPSRG",,,,,7.51,19.47,0.04,0.74
